Measurements: article PMC5874704, “In Silico Study, Synthesis, and Cytotoxic Activities of Porphyrin Derivatives” (Pharmaceuticals, 2018)

Tests used:
WIDR cell line = test: MTT cytotoxicity test, WIDR; assay type: cell-based; conditions: Homo sapiens, 24 h treatment, triplicate, read-out: IC50 (μM) ± SD WIDR
Description: (§1) The human epithelioid cervix carcinoma cell line (HeLa), human ductal breast epithelial tumor cell line (T47D), Michigan Cancer Foundation-7 cell line (MCF-7), human colon carcinoma cell line (WIDR), hepatoblastoma-derived cell line (HepG2), and Vero cell line (derived from kidney of African green monkey) were purchased from ATCC by the Faculty of Medicine Gadjah Mada University. The cell lines were cultured in Dulbecco’s Modified Eagle Medium (DMEM, Gibco), except for Vero cell line, which was cultured in Medium-199 (M-199, Gibco). Other chemicals, i.e., potassium dihydrogen phosphate, sodium chloride, potassium chloride, sodium hydrogen phosphate, dimethyl sulfoxide, sodium dodecyl sulphate, HEPES, sodium bicarbonate, and 3-(4,5-dimetiltiazol-2-il)-2,5-difeniltetrazolium bromide (MTT) were purchased from Sigma-Aldrich. Fetal bovine serum, trypsin-EDTA 0.25%, and penicillin-streptomycin were purchased from Gibco, whereas Amphotericin B was purchased from Caisson. Phosphate-buffered saline (PBS) was obtained by mixing 0.2 g of KH2PO4, 8 g of NaCl, 0.2 g of KCl, 1.15 g of Na2HPO4, and 1 L of distilled water.
(§2) Confluent cells in the Petri dish was harvested by removing the growth media in Petri dish and adding 1 mL of trypsin-EDTA […]. Then the cells was incubated at incubator 37 °C, 5% CO2 for about three minutes. The suspension of cells was put in centrifuge tube, 2 mL of growth media was added with 7 mL of PBS. The mixture was centrifuged for 10 min at 1200 rpm. The supernatant was separated and 2–3 mL of growth media was added to the pellet cell for counting cell. The cell suspense was cultured in 96-well plates (10,000 cells/well). After 24 h, the porphyrin derivative compounds with series concentration were added to treat the cell cultures for another 24 h. The cells were treated by MTT solution for four hours at incubator (37 °C, 5% CO2) and the reaction was stopped by stopper solution (SDS 10% HCl). The plate was incubated at room temperature in dark condition for 24 h. The living cells were counted by reading the absorbance at 595 nm. The corresponding IC50 values were calculated using non-linear regression analysis (GraphPad Prism 7.0.3). Each test was run in triplicate.

HeLa cell line = test: MTT cytotoxicity test, HeLa; assay type: cell-based; conditions: Homo sapiens, 24 h treatment, triplicate, read-out: IC50 (μM) ± SD HeLa
Description: as §1, §2

Vero cell line = test: MTT cytotoxicity test, Vero (normal cells); assay type: cell-based, African green monkey; conditions: Chlorocebus sabaeus, 24 h treatment, triplicate, read-out: IC50 (μM) ± SD Vero
Description: as §1, §2

T47D cell line = test: MTT cytotoxicity test, T47D; assay type: cell-based; conditions: Homo sapiens, 24 h treatment, triplicate, read-out: IC50 (μM) ± SD T47D
Description: as §1, §2

MCF-7 cell line = test: MTT cytotoxicity test, MCF-7; assay type: cell-based; conditions: Homo sapiens, MCF7, 24 h treatment, triplicate, read-out: IC50 (μM) ± SD MCF-7
Description: as §1, §2

HepG2 cell line = test: MTT cytotoxicity test, HepG2; assay type: cell-based; conditions: Homo sapiens, 24 h treatment, triplicate, read-out: IC50 (μM) ± SD HepG2
Description: as §1, §2

Compound	IC50 (WIDR cell line) [µM]	IC50 (HeLa cell line) [µM]	IC50 (Vero cell line) [µM]	IC50 (T47D cell line) [µM]	IC50 (MCF-7 cell line) [µM]	IC50 (HepG2 cell line) [µM]	melting point [°C]
CCOC(=O)COc1ccc(-c2c3nc(c(-c4ccc(C)cc4)c4ccc([nH]4)c(-c4ccc(OCC(=O)OCC)c(OCC(=O)OCC)c4)c4nc(c(-c5ccc(C)cc5)c5ccc2[nH]5)C=C4)C=C3)cc1OCC(=O)OCC [DBECPDTP, 5,15-di-[bis(3,4-ethylcarboxymethylenoxy)phenyl]-10,20-di(p-tolyl)porphyrin]	33.5 ± 1.1	201.7 ± 1.3	372.2 ± 1.1	166.7 ± 1.3	42.1 ± 1.1	37.2 ± 1.1	–
CCOC(=O)COc1ccc(-c2c3nc(c(-c4ccc(OCC(=O)OCC)c(OCC(=O)OCC)c4)c4ccc([nH]4)c(-c4cnn(C)c4)c4nc(c(-c5cnn(C)c5)c5ccc2[nH]5)C=C4)C=C3)cc1OCC(=O)OCC [cDBECPDPzP, 5,10-di-[bis(3,4-ethylcarboxymethylenoxy)phenyl]-15,20-di-(methylpyrazole-4-yl)porphyrin]	28.9 ± 1.1	1083 ± 1.2	548.8 ± 1.2	164.5 ± 1.2	47.9 ± 1.1	28.6 ± 1.2	–
Brc1ccc(-c2c3nc(c(-c4ccc(Br)cc4)c4ccc([nH]4)c(-c4ccc(Br)cc4)c4nc(c(-c5ccc(Br)cc5)c5ccc2[nH]5)C=C4)C=C3)cc1 [TBrPP, 5,10,15,20-tetrakis(p-bromophenyl)porphyrin]	772.7 ± 1.3	595.6 ± 1.3	1176 ± 1.1	443.9 ± 1.1	870.6 ± 1.3	882.7 ± 1.2	> 300
Cc1ccc(-c2c3nc(c(-c4ccc(C)cc4)c4ccc([nH]4)c(-c4ccc([N+](=O)[O-])cc4)c4nc(c(-c5ccc(C)cc5)c5ccc2[nH]5)C=C4)C=C3)cc1 [TrTMNP, 5,10,15-tris(tolyl)-20-mono(p-nitrophenyl)porphyrin]	897.5 ± 1.1	226.1 ± 1.1	10100	5372 ± 1.4	505.2 ± 1.2	146.6 ± 1.2	> 300
Cc1ccc(-c2c3nc(c(-c4ccc(C)cc4)c4ccc([nH]4)c(-c4ccc(C)cc4)c4nc(c(-c5ccc(C)cc5)c5ccc2[nH]5)C=C4)C=C3)cc1 [TTP, 5,10,15,20-tetrakis(p-tolyl)porphyrin]	969.8 ± 1.2	714.6 ± 1.1	15600	1241 ± 1.2	1305 ± 1.3	1120 ± 1.3	> 300
CCOC(=O)COc1ccc(-c2c3nc(c(-c4cnn(C)c4)c4ccc([nH]4)c(-c4ccc(OCC(=O)OCC)c(OCC(=O)OCC)c4)c4nc(c(-c5cnn(C)c5)c5ccc2[nH]5)C=C4)C=C3)cc1OCC(=O)OCC [DBECPDPzP, 5,15-di-[bis(3,4-ethylcarboxymethylenoxy)phenyl]-10,20-di-(methylpyrazole-4-yl)porphyrin]	34.1 ± 1.1	941.9 ± 1.2	363.4 ± 1.1	177.8 ± 1.2	64.2 ± 1.1	31.7 ± 1.2	–
Cc1ccc(-c2c3nc(c(-c4ccc(C)cc4)c4ccc([nH]4)c(-c4ccc(N)cc4)c4nc(c(-c5ccc(C)cc5)c5ccc2[nH]5)C=C4)C=C3)cc1 [TrTMAP, 5,10,15-tris(tolyl)-20-mono(p-aminophenyl)porphyrin]	835.4 ± 1.3	593.1 ± 1.2	4784 ± 1.2	1099 ± 1.3	328.4 ± 1.4	107 ± 1.3	> 300
Nc1ccc(-c2c3nc(c(-c4ccc(N)cc4)c4ccc([nH]4)c(-c4ccc(N)cc4)c4nc(c(-c5ccc(N)cc5)c5ccc2[nH]5)C=C4)C=C3)cc1 [TAPP, 5,10,15,20-tetrakis(p-aminophenyl)porphyrin]	205.1 ± 1.2	1007 ± 1.1	2264 ± 1.2	332.6 ± 1.2	262.2 ± 1.3	36 ± 1.2	–
